Patent US8692001B2, “Sulfonamides for the modulation of PKM2” (Dynamix Pharmaceuticals Ltd., priority 2010, dated 2014)
Each block holds one molecule with its values, some of them ahead of it.

What was measured:
PKM2, human recombinant = biological target: T1, PKM2, human recombinant (Homo sapiens, UniProt P14618); assay: PKM2 enzymatic activity assay (Kinase-Glo Plus luminescence); type: biochemical; conditions: PKM2 activation; 0.1 nM PKM2, 0.1 mM ADP, 0.5 mM PEP, room temperature, 1 hour
T1 construct: purchased BPS 50295
T1 sequence (P14618 whole entry): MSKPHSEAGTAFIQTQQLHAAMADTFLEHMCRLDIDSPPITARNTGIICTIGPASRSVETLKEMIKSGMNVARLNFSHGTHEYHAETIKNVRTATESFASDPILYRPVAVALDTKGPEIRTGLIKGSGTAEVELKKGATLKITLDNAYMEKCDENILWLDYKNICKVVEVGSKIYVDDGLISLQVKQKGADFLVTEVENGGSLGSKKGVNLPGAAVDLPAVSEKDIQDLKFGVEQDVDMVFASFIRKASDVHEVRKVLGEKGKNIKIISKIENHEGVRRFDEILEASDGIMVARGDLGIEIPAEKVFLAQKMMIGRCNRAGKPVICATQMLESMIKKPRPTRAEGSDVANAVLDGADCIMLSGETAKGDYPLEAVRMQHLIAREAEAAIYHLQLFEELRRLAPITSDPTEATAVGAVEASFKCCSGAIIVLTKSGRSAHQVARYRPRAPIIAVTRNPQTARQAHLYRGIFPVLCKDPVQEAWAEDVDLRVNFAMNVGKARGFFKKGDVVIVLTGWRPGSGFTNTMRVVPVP
Method: PKM2 performs the following enzymatic reaction, where the PKM2 substrates, PEP (phosphoenolpyruvate) and ADP, are converted to pyruvate and ATP as follows: PEP+ADP→Pyruvate+ATP. All of the enzymatic reactions were conducted in duplicates at room temperature for 1 hour in a 50 μL mixture containing:
PKM2 assay buffer (50 mM Immidazole, pH 7.2; 7 mM MgCl2; 50 mM KCl; 0.01% Tween; and 0.05% BSA), 0.1 mM ADP, 0.5 mM PEP, 0.1 nM PKM2 enzyme (PKM2, human recombinant (BPS catalog number 50295)) and the indicated test compound.
Fructose 1,6 biphosphate, (FBP (Sigma)) was used as a positive control for activation at concentration of 0.5 mM. After enzymatic reactions, 50 μL of Kinase-Glo® Plus reagent (Promega kit) was added to each well and luminescence was measured using a BioTek Synergy™ 2 microplate reader.
PKM2 activity assays were performed in duplicates at each concentration. The luminescence data were analyzed using the computer software, GraphPad PRISM®. In the absence of the compound, the luminescence was defined as 0% activity. The percent activity in the presence of each compound was calculated according to the following equation: % Activity=[(L−Lb)/(Lt−Lb)−1]×100% where L=the luminescence in the presence of the test compound, Lb=the luminescence in the absence of PKM2, and Lt=the luminescence intensity in the absence of the test compound. The % activity values versus a series of compound concentrations were plotted using non-linear regression analysis of Sigmoidal dose-response curve generated with the equation Y=B+(T−B)/1+10^((LogEC50−X)×Hill Slope), where Y=percent activity, B=minimum percent activity, T=maximum percent activity, X=logarithm of compound and Hill Slope=slope factor or Hill coefficient. The EC50 value was determined for the indicated compounds as the concentration causing a half-maximal percent activity.

[1] = tested on: H1299 (Non small cell lung carcinoma cell line); assay: In vitro cell proliferation, Assay Protocol II (cell proliferation index, fluorescent membrane marker, flow cytometry); type: cell-based; conditions: Homo sapiens, NCI-H1299, as measured by Assay Protocol II
Method: In a second assay to determine the inhibition of cell proliferation by a compound of the invention, cell proliferation of the cell line of interest was measured by a cell proliferation index assay using Fluofarma® based technology. This assay is based on the dilution rate of a fluorescent membrane marker, which is a direct function of the number of cell divisions. Briefly, the assay is performed by loading the cells with a non-toxic fluorescent phospholipid analog before the seeding. […] Flow cytometry analysis of the fluorescent probe is performed after the loading of the cells both prior to, as well as after treatment with various concentrations of the test compound. The dilution rate of the fluorescent probe at the single cell level is directly correlated to the number of cell divisions.

[2] = tested on: HeLa (Cervical cancer cell line); assay: In vitro cell proliferation, Assay Protocol I (CellTiterGlo); type: cell-based; conditions: Homo sapiens
Method: (§1) Growth inhibitory activity against the human tumor cell lines of compounds of the invention was determined using Promega's CellTiterGlo® assay. The cell lines of interest were placed in a 96-well microculture plate (Costar® white, flat bottom #3917) in a total volume of 90 μL/well. After 24 hours of incubation in a humidified incubator at 37° C. with 5% CO2 and 95% air, 10 μL of serially diluted test compounds in growth medium were added to each well. After 96 total hours of culture in a CO2 incubator, the plated cells and CellTiter-Glo® (Promega # G7571) reagents were brought to room temperature to equilibrate for 30 minutes. 100 μL of CellTiter-Glo® reagent was added to each well. The plate was shaken for 2 minutes and then left to equilibrate for 10 minutes before reading luminescence on the Tecan GENios microplate reader.
(§2) Percent inhibition of cell growth was calculated relative to untreated control wells. All tests were performed in triplicate for each concentration level. The IC50 value for the test compounds was estimated using Prism 3.03 by curve-fitting the data.

[3] = tested on: H1299 (Non small cell lung carcinoma cell line); assay: as above; type: cell-based; conditions: Homo sapiens, NCI-H1299, 96 total hours of culture
Method: as §1, §2

[4] = tested on: Colo-205 (Colorectal cancer cell line); assay: as above; type: cell-based; conditions: Homo sapiens
Method: as §1, §2

[5] = tested on: HT-29 (Colorectal cancer cell line); assay: as above; type: cell-based; conditions: Homo sapiens
Method: as §1, §2

[6] = tested on: 786-O (Renal cancer cell line); assay: as above; type: cell-based; conditions: Homo sapiens, 786-0
Method: as §1, §2

[7] = tested on: A549 (Non-small cell lung carcinoma cell line); assay: as above; type: cell-based; conditions: Homo sapiens
Method: as §1, §2

[8] = Cell proliferation and apoptosis over time (cell counts, caspase 3/7 assay), FIG. 3; type: cell-based
Method: Additionally, the effect of 5-((2,3-dihydrobenzo[b][1,4]dioxin-6-yl)sulfonyl)-2-methyl-1-(methylsulfonyl)indoline on cell proliferation and apoptosis was measured and the results are shown in FIG. 3.

[9] = tested on: HepG2 cancer cells (hepatocellular carcinoma cells); assay: Bioenergetic study, XF24 analyzer (OCR and ECAR); type: cell-based; conditions: HepG2 cells treated at 100 μM, recorded over an 8 hour period; FIG. 2
Method: Bioenergetic studies were performed using XF24 analyzer (Seahorse Bioscience). Oxygen Consumption Rate (OCR), a measure of mitochondrial oxydative phosphorylation, and Extra-Cellular Acidification Rate (ECAR), which represents glycolysis, were recorded over an 8 hour period for cells treated with various test compounds at 100 μM.

EC50 (PKM2, human recombinant): 10 to 100 µM
SMILES: CCN(c1ccc(S(=O)(=O)c2ccc3c(c2)OCCO3)cc1)S(C)(=O)=O [Compound 24A]

EC50 (PKM2, human recombinant): 1 to 10 µM
SMILES: CCN(c1ccc(S(=O)(=O)c2ccc3c(c2)OCCO3)c(C)c1)S(C)(=O)=O [Compound 12A]

EC50 (PKM2, human recombinant): 1 to 10 µM
SMILES: Cc1cn(S(C)(=O)=O)c2ccc(S(=O)(=O)c3ccc4c(c3)OCCO4)cc12 [Compound 21A]

EC50 (PKM2, human recombinant): 1 to 10 µM
SMILES: CC(C)N(c1ccc(S(=O)(=O)c2ccc3c(c2)OCCO3)cc1)S(C)(=O)=O [Compound 10A]

More lines, now with the values behind:

SMILES: CS(=O)(=O)N1Cc2ccc(S(=O)(=O)c3ccc4c(c3)OCCO4)cc2C1 [Compound 6A, 5-((2,3-dihydrobenzo[b][1,4]dioxin-6-yl)sulfonyl)-2-(methylsulfonyl)isoindoline]
IC50 [1]: < 20 µM

SMILES: CS(=O)(=O)N1CCCc2cc(S(=O)(=O)c3ccc4c(c3)OCCO4)ccc21 [Compound 7A]
EC50 (PKM2, human recombinant): 1 to 10 µM

SMILES: CC1Cc2cc(S(=O)(=O)Nc3ccc4c(c3)OCCO4)ccc2N1S(C)(=O)=O (stereo not drawn) [Compound 23A]
EC50 (PKM2, human recombinant): 10 to 100 µM

SMILES: C[C@H]1Cc2cc(S(=O)(=O)c3ccc4c(c3)OCCO4)ccc2N1S(=O)(=O)Cc1ccccc1 [Compound 13A]
EC50 (PKM2, human recombinant): 1 to 10 µM

SMILES: CC1Cc2cc(S(=O)(=O)c3ccc4c(c3)OCCO4)ccc2N1S(C)(=O)=O (stereo not drawn) [Compound 2A, 5-((2,3-dihydrobenzo[b][1,4]dioxin-6-yl)sulfonyl)-2-methyl-1-(methylsulfonyl)indoline]
IC50 [1]: < 40 µM | IC50 [2]: < 60 µM | IC50 [3]: < 10 µM | IC50 [4]: < 30 µM | IC50 [5]: > 100 µM | IC50 [6]: < 30 µM | IC50 [7]: < 50 µM | Effect on cell proliferation (cell counts) ([8]; FIG. 3, as a function of time after treatment): induces a period of growth arrest | Cells that underwent apoptosis (caspase 3/7 assay) ([8]; by day 15, FIG. 3): up to 60% | Metabolic activity (OCR and ECAR) [9]: less metabolically active | EC50 (PKM2, human recombinant): 1 to 10 µM

SMILES: CC(=O)N1c2ccc(S(=O)(=O)c3ccc4c(c3)OCCO4)cc2CC1C (stereo not drawn) [Compound 4A]
EC50 (PKM2, human recombinant): 1 to 10 µM

SMILES: CS(=O)(=O)N1CCc2cc(S(=O)(=O)c3ccc4c(c3)OCCO4)ccc21 [Compound 11A, 5-((2,3-dihydrobenzo[b][1,4]dioxin-6-yl)sulfonyl)-1-(methylsulfonyl)indoline]
IC50 [3]: < 20 µM
